According to BigSolDB 2.1:

Conditions: in water

`NCCS(=O)(=O)O` gave a solubility (mole fraction) (278.15 K) of 0.00667, a solubility (mole fraction) (283.15 K) of 0.00809 and a solubility (mole fraction) (288.15 K) of 0.0101. For the same molecule, the solubility (mole fraction) (293.15 K) was 0.0121, the solubility (mole fraction) (298.15 K) was 0.0141 and the solubility (mole fraction) (303.15 K) was 0.0172. For the same molecule, the solubility (mole fraction) (308.15 K) was 0.0202, the solubility (mole fraction) (313.15 K) was 0.0232 and the solubility (mole fraction) (318.15 K) was 0.0264. For the same molecule, the solubility (mole fraction) (323.15 K) was 0.0318.
